Experiment: Stability of dexamethasone in phosphate buffer for long term release
Type: physicochemical

With `C[C@@H]1C[C@H]2[C@@H]3CCC4=CC(=O)C=C[C@]4(C)[C@@]3(F)[C@@H](O)C[C@]2(C)[C@@]1(O)C(=O)CO` [dexamethasone] the “stability in phosphate buffer for long term release” value was “instability”.

From US11504340B2, “Ocular compositions” (THE QUEEN'S UNIVERSITY OF BELFAST, priority 2017, dated 2022)
